Publication PMC11106745 (ACS Chemical Biology, 2024)
Values joined by “and” are separate entries in the source; they are usually repeats but may differ in a detail not shown here. Identical values can stand only once. Like-named read-outs stand apart in the source and are kept apart here.

Assays:
SARS-CoV-2 Mac1 [1] = target: T1, SARS-CoV-2 Mac1 (Severe acute respiratory syndrome coronavirus 2, UniProt P0DTD1); experiment: biochemical; assay type: binding
CHIKV Mac [2] = target: T2, CHIKV Mac (Chikungunya virus, UniProt Q8JUX6); experiment: biochemical; assay type: binding
T2 sequence (Q8JUX6 1334-1493 limits assumed): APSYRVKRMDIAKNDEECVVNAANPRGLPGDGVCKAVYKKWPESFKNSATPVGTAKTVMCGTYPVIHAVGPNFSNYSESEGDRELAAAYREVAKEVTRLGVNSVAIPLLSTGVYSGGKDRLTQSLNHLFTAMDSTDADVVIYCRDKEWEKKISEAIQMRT

MERS-CoV Mac1 [3] = target: T3, MERS-CoV Mac1 (Middle East respiratory syndrome-related coronavirus, UniProt K9N7C7); experiment: biochemical; assay type: binding
T3 sequence (K9N7C7 1110-1276 limits assumed): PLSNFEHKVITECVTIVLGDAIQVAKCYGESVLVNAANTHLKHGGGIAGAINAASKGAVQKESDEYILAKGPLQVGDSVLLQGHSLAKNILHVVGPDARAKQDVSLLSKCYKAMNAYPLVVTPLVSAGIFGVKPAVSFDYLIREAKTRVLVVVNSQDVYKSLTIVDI

VEEV Mac [4] = target: T4, VEEV Mac (Venezuelan equine encephalitis virus, UniProt P27282); experiment: biochemical; assay type: binding
T4 sequence (P27282 1330-1489 limits assumed): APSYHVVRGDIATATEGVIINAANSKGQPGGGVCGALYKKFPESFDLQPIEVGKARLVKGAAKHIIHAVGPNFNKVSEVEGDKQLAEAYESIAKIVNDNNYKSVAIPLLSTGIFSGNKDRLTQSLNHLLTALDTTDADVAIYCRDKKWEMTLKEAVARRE

SARS-CoV-2 Mac1 [5] = target: T1, SARS-CoV-2 Mac1; details: cited from earlier work
SARS-CoV-2 Mac1 [6] = target: T1, SARS-CoV-2 Mac1; details: cited from earlier work; remark: listed apart in the source
MERS-CoV Mac1 [7] = target: T3, MERS-CoV Mac1; experiment: biochemical; assay type: binding; details: for koff: read-out: kdis
CHIKV Mac [8] = target: T2, CHIKV Mac; experiment: biochemical; assay type: binding; details: for koff: read-out: kdis
SARS-CoV-2 Mac1 [9] = target: T1, SARS-CoV-2 Mac1; experiment: biochemical; assay type: binding; details: for koff: read-out: kdis
MERS-CoV Mac1 [10] = target: T3, MERS-CoV Mac1; experiment: biochemical; assay type: binding; remark: listed apart in the source
CHIKV Mac [11] = target: T2, CHIKV Mac; experiment: biochemical; assay type: binding; remark: listed apart in the source
SARS-CoV-2 Mac1 [12] = target: T1, SARS-CoV-2 Mac1; experiment: biochemical; assay type: binding; remark: listed apart in the source
VEEV Mac [13] = target: T4, VEEV Mac; experiment: biochemical; assay type: binding; details: for koff: read-out: kdis
SARS-CoV-2 Mac1 [14] = target: T1, SARS-CoV-2 Mac1; details: cited from earlier work; remark: listed apart in the source
VEEV Mac [15] = target: T4, VEEV Mac; experiment: biochemical; assay type: binding; remark: listed apart in the source
MacroD1 = target: T5, MacroD1 (Homo sapiens, UniProt Q9BQ69); experiment: IC50 curves of binding to MacroD1 (Figure S2); details: Figure S2, fitted
T5 construct: made in house
T5 sequence (Q9BQ69 1-325): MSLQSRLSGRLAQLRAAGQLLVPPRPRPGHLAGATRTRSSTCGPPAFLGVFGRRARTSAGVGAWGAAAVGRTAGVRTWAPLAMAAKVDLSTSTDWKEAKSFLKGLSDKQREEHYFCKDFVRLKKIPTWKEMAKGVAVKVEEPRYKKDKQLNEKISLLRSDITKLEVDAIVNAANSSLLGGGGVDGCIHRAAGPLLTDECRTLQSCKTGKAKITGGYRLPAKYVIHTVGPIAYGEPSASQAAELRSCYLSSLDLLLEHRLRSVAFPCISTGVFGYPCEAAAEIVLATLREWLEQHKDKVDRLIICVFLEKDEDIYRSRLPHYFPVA

MacroD2 = target: T6, MacroD2 (Homo sapiens, UniProt A1Z1Q3); experiment: IC50 curves of binding to MacroD2 (Figure S2); details: Figure S2, fitted
T6 construct: made in house
T6 sequence (A1Z1Q3 1-425): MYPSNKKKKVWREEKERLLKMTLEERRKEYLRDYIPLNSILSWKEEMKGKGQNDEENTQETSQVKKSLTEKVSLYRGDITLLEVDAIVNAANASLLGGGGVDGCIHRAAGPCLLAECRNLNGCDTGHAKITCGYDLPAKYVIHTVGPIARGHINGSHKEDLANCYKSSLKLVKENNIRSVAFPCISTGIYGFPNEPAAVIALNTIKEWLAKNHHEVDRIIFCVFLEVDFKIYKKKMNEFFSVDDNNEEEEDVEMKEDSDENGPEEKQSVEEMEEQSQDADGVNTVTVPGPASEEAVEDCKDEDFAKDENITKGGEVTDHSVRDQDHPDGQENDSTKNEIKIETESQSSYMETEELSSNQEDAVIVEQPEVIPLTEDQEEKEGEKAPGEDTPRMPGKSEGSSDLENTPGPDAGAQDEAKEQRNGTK

## CN(C)c1ccc2c(c1)Oc1cc(N(C)C)ccc1C21OC(=O)c2cc(C(=O)NCCCCCCNC(=O)CCc3cn([C@H]4O[C@H](COP(=O)(O)OP(=O)(O)OC[C@H]5O[C@@](C#N)(c6ccc7c(N)ncnn67)[C@H](O)[C@@H]5O)[C@@H](O)[C@H]4O)nn3)ccc21 [TAMRA-NDPr]
SARS-CoV-2 Mac1 [1]
  fold more potent than TAMRA-ADPr: over 100 fold
SARS-CoV-2 Mac1 [1]; Kd
  Kd: 15 nM
CHIKV Mac [2]
  fold affinity improvement over TAMRA-ADPr: more than 30 fold
  Kd: 208 nM and 210 nM
MERS-CoV Mac1 [3]
  Kd: 130 nM
VEEV Mac [4]
  Kd: 39 nM

## Nc1ncnc2c1ncn2C1OC(COP(=O)(O)OP(=O)(O)OCC2OC(Oc3ccc([N+](=O)[O-])cc3)C(O)C2O)C(O)C1O (stereo not shown) [pNP-ADPr]
SARS-CoV-2 Mac1 [5]
  IC50: 370 nM
  fold more potent than ADPr: > 20 fold

## COC(=O)c1c(NC(=O)[C@@H]2CCC[C@@H](C(=O)O)C2)sc2c1CCCCCC2 [compound 27]
SARS-CoV-2 Mac1 [6]
  IC50: 2100 nM

## CN(C)c1ccc2c(c1)Oc1cc(N(C)C)ccc1C21OC(=O)c2cc(C(=O)NCCCCCCNC(=O)CCc3cn([C@H]4O[C@H](COP(=O)(O)OP(=O)(O)OC[C@H]5O[C@@H](n6cnc7c(N)ncnc76)[C@H](O)[C@@H]5O)[C@@H](O)[C@H]4O)nn3)ccc21 [TAMRA-ADPr, reference compound]
SARS-CoV-2 Mac1 [1]; Kd
  Kd: 2100 nM
CHIKV Mac [2]
  Kd: 7200 nM
MERS-CoV Mac1 [3]
  Kd: 830 nM
VEEV Mac [4]
  Kd: 1700 nM

## N#C[C@@]1(c2ccc3c(N)ncnn23)O[C@H](COP(=O)(O)OP(=O)(O)OC[C@H]2O[C@H](n3cc(COCCOCCOCCOCCNC(=O)CCCC[C@@H]4SC[C@@H]5NC(=O)N[C@@H]54)nn3)[C@H](O)[C@@H]2O)[C@@H](O)[C@H]1O [biotin-NDPr]
MERS-CoV Mac1 [7]
  kon: 1.3e+06 ± 50000 M⁻¹ s⁻¹
  Kd: 210 ± 10 nM
  koff: 0.27 ± 0.01 s⁻¹
CHIKV Mac [8]
  fold stronger than biotin-ADPr: ~15 fold
  kon: 180000 ± 4000 M⁻¹ s⁻¹
  Kd: 331 nM and 330 nM
  koff: 0.06 ± 0.0009 s⁻¹
SARS-CoV-2 Mac1 [9]
  Kd: 280 ± 10 nM
  fold more potent than biotin-ADPr based on Kd: ~70 fold
  kon: 310000 ± 5000 M⁻¹ s⁻¹
  koff: 0.085 ± 0.001 s⁻¹
MERS-CoV Mac1 [10]
  IC50: 1200 nM
CHIKV Mac [11]
  IC50: 950 nM
SARS-CoV-2 Mac1 [12]
  IC50: 57 nM
VEEV Mac [13]
  kon: 580000 ± 6000 M⁻¹ s⁻¹
  koff: 0.076 ± 0.0008 s⁻¹

## Nc1ncnc2c1ncn2[C@@H]1O[C@H](COP(=O)(O)OP(=O)(O)OC[C@H]2O[C@H](Oc3ccc(Cn4cc(COCCOCCOCCOCCNC(=O)CCCC[C@@H]5SC[C@@H]6NC(=O)N[C@@H]65)nn4)cc3)[C@H](O)[C@@H]2O)[C@@H](O)[C@H]1O [biotin-Ph-ADPr]
MERS-CoV Mac1 [7]
  fold decrease in Kd compared to biotin-ADPr: 20 fold
  kon: 1.1e+06 ± 30000 M⁻¹ s⁻¹
  Kd: 100 ± 4 nM
  koff: 0.11 ± 0.003 s⁻¹
CHIKV Mac [8]
  kon: 19000 ± 500 M⁻¹ s⁻¹
  Kd: 6200 ± 200 nM
  koff: 0.12 ± 0.002 s⁻¹
SARS-CoV-2 Mac1 [9]
  Kd: 420 ± 10 nM
  fold more potent than biotin-ADPr based on Kd: ~50 fold
  kon: 270000 ± 5000 M⁻¹ s⁻¹
  koff: 0.11 ± 0.002 s⁻¹
MERS-CoV Mac1 [10]
  IC50: 310 nM
CHIKV Mac [11]
  IC50: > 10000 nM
SARS-CoV-2 Mac1 [12]
  IC50: 130 nM
VEEV Mac [13]
  fold decrease in Kd compared to biotin-ADPr: 30 fold
  kon: 520000 ± 6000 M⁻¹ s⁻¹
  koff: 0.083 ± 0.0008 s⁻¹

## O=C(O)[C@H](Cc1c[nH]c2ccccc12)Nc1ncnc2[nH]ccc12 [compound 15c]
SARS-CoV-2 Mac1 [14]
  IC50: 6100 nM

## Nc1ncnc2c1ncn2[C@@H]1O[C@H](COP(=O)(O)OP(=O)(O)OC[C@H]2O[C@H](Oc3ccccc3)[C@H](O)[C@@H]2O)[C@@H](O)[C@H]1O [Ph-ADPr]
VEEV Mac [15]
  IC50: 7300 nM
MERS-CoV Mac1 [10]
  IC50: 1800 nM
CHIKV Mac [11]
  IC50: 126000 nM
SARS-CoV-2 Mac1 [12]
  IC50: 1900 nM and 730 nM and 1500 nM

## CN(C)c1ccc2c(c1)Oc1cc(N(C)C)ccc1C21OC(=O)c2cc(C(=O)NCCCCCCNC(=O)CCc3cn(Cc4ccc(O[C@H]5O[C@H](COP(=O)(O)OP(=O)(O)OC[C@H]6O[C@@](C#N)(c7ccc8c(N)ncnn78)[C@H](O)[C@@H]6O)[C@@H](O)[C@H]5O)cc4)nn3)ccc21 [TAMRA-Ph-NDPr]
SARS-CoV-2 Mac1 [1]
  fold more potent than TAMRA-ADPr: over 100 fold
SARS-CoV-2 Mac1 [1]; Calculated Kd
  Kd: 2.3 nM
SARS-CoV-2 Mac1 [1]; Kd
  Kd: 5.3 nM
CHIKV Mac [2]
  Kd: 810 nM
MERS-CoV Mac1 [3]
  Kd: 11 nM
VEEV Mac [4]
  Kd: 10 nM

## Nc1ncnc2c1ncn2[C@@H]1O[C@H](COP(=O)(O)OP(=O)(O)OC[C@H]2O[C@H](n3cc(COCCOCCOCCOCCNC(=O)CCCC[C@@H]4SC[C@@H]5NC(=O)N[C@@H]54)nn3)[C@H](O)[C@@H]2O)[C@@H](O)[C@H]1O [biotin-ADPr]
MERS-CoV Mac1 [7]
  kon: 320000 ± 10000 M⁻¹ s⁻¹
  Kd: 2100 ± 100 nM
  koff: 0.7 ± 0.03 s⁻¹
CHIKV Mac [8]
  kon: 120000 ± 3000 M⁻¹ s⁻¹
  Kd: 5300 ± 200 nM
  koff: 0.65 ± 0.02 s⁻¹
SARS-CoV-2 Mac1 [9]
  Kd: 19600 nM
  kon: 53000 ± 3000 M⁻¹ s⁻¹
  koff: 1 ± 0.05 s⁻¹
MERS-CoV Mac1 [10]
  IC50: 6800 nM
CHIKV Mac [11]
  IC50: 22200 nM
SARS-CoV-2 Mac1 [12]
  IC50: 3500 nM
VEEV Mac [13]
  kon: 140000 ± 8000 M⁻¹ s⁻¹
  koff: 0.79 ± 0.04 s⁻¹

## N#CC1(c2ccc3c(N)ncnn23)OC(COP(=O)(O)OP(=O)(O)OCC2OC(O)C(O)C2O)C(O)C1O (stereo not shown) [NDPr]
MacroD1
  IC50: > 10000 nM
VEEV Mac [15]
  IC50: 510 nM
MERS-CoV Mac1 [10]
  IC50: 2900 nM
MacroD2
  IC50: > 10000 nM
CHIKV Mac [11]
  IC50: 920 nM
SARS-CoV-2 Mac1 [12]
  IC50: 800 nM and 170 nM and 290 nM

## N#C[C@@]1(c2ccc3c(N)ncnn23)O[C@H](COP(=O)(O)OP(=O)(O)OC[C@H]2O[C@H](Oc3ccccc3)[C@H](O)[C@@H]2O)[C@@H](O)[C@H]1O [Ph-NDPr]
VEEV Mac [15]
  IC50: 220 nM
MERS-CoV Mac1 [10]
  IC50: 460 nM
CHIKV Mac [11]
  IC50: 9300 nM
SARS-CoV-2 Mac1 [12]
  fold better IC50 than ADPr: 6000 fold
  fold better IC50 than NDPr: 100 fold
  fold better IC50 than Ph-ADPr: 500 fold

## Nc1ncnc2c1ncn2C1OC(COP(=O)(O)OP(=O)(O)OCC2OC(Oc3ccc4c(C(F)(F)F)cc(=O)oc4c3)C(O)C2O)C(O)C1O (stereo not shown) [TFMU-ADPr]
SARS-CoV-2 Mac1 [5]
  IC50: 590 nM
  fold more potent than ADPr: > 20 fold

## N#C[C@@]1(c2ccc3c(N)ncnn23)O[C@H](COP(=O)(O)OP(=O)(O)OC[C@H]2O[C@H](Oc3ccc(Cn4cc(COCCOCCOCCOCCNC(=O)CCCC[C@@H]5SC[C@@H]6NC(=O)N[C@@H]65)nn4)cc3)[C@H](O)[C@@H]2O)[C@@H](O)[C@H]1O [biotin-Ph-NDPr]
MERS-CoV Mac1 [7]
  fold decrease in Kd compared to biotin-ADPr: ~100 fold
  kon: 1.8e+06 ± 10000 M⁻¹ s⁻¹
  Kd: 17.2 nM and 17 nM
  koff: 0.031 ± 0.0002 s⁻¹
CHIKV Mac [8]
  kon: 190000 ± 6000 M⁻¹ s⁻¹
  Kd: 570 ± 20 nM
  koff: 0.11 ± 0.003 s⁻¹
SARS-CoV-2 Mac1 [9]
  Kd: 24 nM
  fold more potent than biotin-ADPr based on Kd: ~1000 fold
  kdis fold smaller than that of biotin-ADPr: more than 100 fold
  kon: 300000 ± 3000 M⁻¹ s⁻¹
  koff: 0.0071 s⁻¹
MERS-CoV Mac1 [10]
  IC50: 100 nM
CHIKV Mac [11]
  IC50: 860 nM
SARS-CoV-2 Mac1 [12]
  IC50: 11 nM
VEEV Mac [13]
  fold decrease in Kd compared to biotin-ADPr: 400 fold
  kon: 820000 ± 7000 M⁻¹ s⁻¹
  koff: 0.014 ± 6e-05 s⁻¹
